Legend:
dogs = conditions: tilmicosin in conventional form; cited from earlier work
[1] = Solubility of fatty acid salt in water immiscible solvent; format: physicochemical; conditions: amine group neutralized with linoleic acid, in isopropyl myristate
Source text: Oxytetracycline has one tertiary amine group, and the hydrochloride salt of oxytetracycline is readily soluble in water. Adding one mole of fatty acid to one mole of oxytetracycline creates a salt that is more soluble than unmodified oxytetracycline in isopropyl myristate.
When the two amine groups of tilmicosin are neutralized with any of several fatty acids (such as, for example, decanoic C10, lauric C12, myristic C14, palmitic C16, stearic C18, oleic C18, elaidic C18, linoleic C18, and erucic C22, sebacic, dodecanedioic), the resulting salt is soluble in pharmaceutically-acceptable water immiscible solvents. When a formulation of the salt (tilmicosin-linoleic acid) is sealed in a dialysis cassette and place in saline, the tilmicosin salt remains a cohesive mass, and tilmicosin is slowly released from the bag. The rate of release is a function of the chain length of the fatty acid, the solvent, and the tilmicosin-fatty acid salt concentration.
Roxithromycin is effective against a broad range of bacteria, and is used for the treatment of respiratory diseases in cattle. The amine group of roxithromycin can be neutralized with linoleic acid in isopropyl myristate, and a clear solution is obtained at 200 mg/ml.
Terbinafine is a specific inhibitor of squaline epoxidase, a key enzyme in fungal ergosterol biosynthesis. […]

[2] = Solubility of salt in water; format: physicochemical; conditions: linoleic acid salt
Procedure: Terbinafine is a specific inhibitor of squaline epoxidase, a key enzyme in fungal ergosterol biosynthesis. The amine group of terbinafine was neutralized with linoleic acid in ispropyl myristate, resulting in a clear solution at 150 mg/ml.

| Molecule | dose normally lethal in dogs (dogs) [mg/kg] | concentration at which a clear solution is obtained [1] [µg/mL] | solubility of the resulting salt in water [2] |
| --- | --- | --- | --- |
| Tilmicosin | 50 | – | – |
| CC[C@H]1OC(=O)[C@H](C)[C@@H](OC2CC(C)(OC)C(O)C(C)O2)[C@H](C)[C@@H](OC2OC(C)CC(N(C)C)C2O)[C@](C)(O)C[C@@H](C)/C(=N\OCOCCOC)[C@H](C)[C@@H](O)[C@]1(C)O (stereo partly shown) [roxithromycin, Roxithromycin] | – | 200000 | – |
| CN(C/C=C/C#CC(C)(C)C)Cc1cccc2ccccc12 [terbinafine, Terbinafine] | – | 150000 | highly insoluble |
